Measurements reported in patent US11981666B2, “GLP-1 receptor agonist and composition and use thereof” (HANGZHOU ZHONGMEIHUADONG PHARMACEUTICAL CO., LTD., priority 2021, dated 2024).
“And” between values parts separate entries of the source, which are not always exact repeats. Equal entries are not always repeated. Where two headings read alike, the source gives them in different places.

Key:
Human GLP-1R = target: T1, Human GLP-1R (Homo sapiens, UniProt P43220); experiment: GLP-1R agonistic activity assay (HTRF cAMP, 293A GFP-GLP-1R cells); type: cell-based; conditions: cAMP level, geometric mean
T1 construct: expressed in transfected cells
T1 sequence (P43220 24-463): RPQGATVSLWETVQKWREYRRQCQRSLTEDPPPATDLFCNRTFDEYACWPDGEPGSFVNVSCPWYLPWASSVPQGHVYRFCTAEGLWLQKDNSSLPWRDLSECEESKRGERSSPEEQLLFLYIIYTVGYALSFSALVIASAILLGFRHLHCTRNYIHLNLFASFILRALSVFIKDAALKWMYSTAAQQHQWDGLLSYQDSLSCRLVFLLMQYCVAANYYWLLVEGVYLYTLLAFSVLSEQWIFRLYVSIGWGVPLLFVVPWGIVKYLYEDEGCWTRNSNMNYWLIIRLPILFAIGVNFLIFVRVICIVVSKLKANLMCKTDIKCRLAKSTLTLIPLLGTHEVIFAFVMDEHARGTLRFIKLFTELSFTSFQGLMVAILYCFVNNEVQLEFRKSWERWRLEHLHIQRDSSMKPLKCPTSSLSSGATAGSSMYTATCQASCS
Excerpt: The method was a competitive immunoassay.

hERG potassium channels = target: T2, hERG potassium channels (Homo sapiens, UniProt Q12809); experiment: Test for inhibition of hERG potassium channels (whole-cell patch clamp, HEK-293-hERG cells); type: cell-based; conditions: for hERG (IR): inhibition rate of tail current
T2 construct: expressed in transfected cells; host or cells: HEK-293-hERG cells
T2 sequence (Q12809 whole entry): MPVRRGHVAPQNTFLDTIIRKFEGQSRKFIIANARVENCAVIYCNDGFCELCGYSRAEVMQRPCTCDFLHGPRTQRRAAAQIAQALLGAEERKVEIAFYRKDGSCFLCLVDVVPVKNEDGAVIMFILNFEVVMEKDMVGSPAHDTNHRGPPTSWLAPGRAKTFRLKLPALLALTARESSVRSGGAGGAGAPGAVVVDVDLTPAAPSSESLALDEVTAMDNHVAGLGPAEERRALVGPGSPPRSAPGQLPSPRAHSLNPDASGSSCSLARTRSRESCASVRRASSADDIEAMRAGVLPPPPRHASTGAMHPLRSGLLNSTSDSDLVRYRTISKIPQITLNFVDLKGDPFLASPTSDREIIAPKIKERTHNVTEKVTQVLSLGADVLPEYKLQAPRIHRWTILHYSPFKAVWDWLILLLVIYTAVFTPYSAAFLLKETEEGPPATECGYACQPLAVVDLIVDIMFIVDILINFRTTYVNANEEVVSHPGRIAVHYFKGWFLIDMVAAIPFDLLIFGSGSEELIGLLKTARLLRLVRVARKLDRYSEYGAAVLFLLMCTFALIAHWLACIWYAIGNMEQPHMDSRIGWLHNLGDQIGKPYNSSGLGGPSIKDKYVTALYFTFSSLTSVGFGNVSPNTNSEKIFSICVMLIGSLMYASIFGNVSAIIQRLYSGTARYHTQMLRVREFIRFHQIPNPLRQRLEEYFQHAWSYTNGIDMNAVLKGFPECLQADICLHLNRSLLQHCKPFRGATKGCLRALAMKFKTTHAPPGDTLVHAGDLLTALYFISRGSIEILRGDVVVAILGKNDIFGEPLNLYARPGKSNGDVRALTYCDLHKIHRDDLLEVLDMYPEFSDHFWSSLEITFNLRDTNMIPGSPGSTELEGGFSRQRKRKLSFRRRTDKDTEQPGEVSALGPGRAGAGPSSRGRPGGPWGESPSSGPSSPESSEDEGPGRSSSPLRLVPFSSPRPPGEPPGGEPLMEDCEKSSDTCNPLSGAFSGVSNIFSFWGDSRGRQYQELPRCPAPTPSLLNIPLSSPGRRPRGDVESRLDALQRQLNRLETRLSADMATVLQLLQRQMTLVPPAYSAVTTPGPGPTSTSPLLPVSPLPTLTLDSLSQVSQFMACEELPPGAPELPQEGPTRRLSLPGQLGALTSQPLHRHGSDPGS
Excerpt: Positive control: Amitriptyline hydrochloride or Terfenadine

[1] = Toxicological experiment in mice, 14-day repeated oral gavage (toxicokinetic study); type: in vivo, mouse; conditions: ICR, mouse, po, 200 mg/kg, Day 14; for AUC(0-t): plasma
Method: (§1) Experimental method: 212 ICR mice (SPF grade), half male and half female. Animals in groups 1-5 were used for toxicity study, with 10 male and 10 female animals in each group; and animals in groups 6-9 were used for toxicokinetic study, with 14 male and 14 female animals in each group (2 of them were spare animals). […] Animals in Groups 1-9 were administered orally once a day for 14 consecutive days.

ICR mice [2] = experiment: as above; type: in vivo, mouse; conditions: toxicokinetic study, female animals, 200 mg/kg oral once a day for 14 days
Method: as §1

[3] = Caco-2 cell transport experiment; type: in vitro ADME; conditions: human
Method: Caco-2 cells, 77th passage; HBSS, Lot: G210713; ACN+IS (tolbutamide 200 ng/mL); Caco-2 was inoculated on polyethylene (PET) in a 96-well Falcon plate at 2×10^5 cells/cm^2 until a confluent cell monolayer was formed on day 21-28. The culture medium was changed every 3-4 days. The test compound was diluted to a concentration of 10 uM with a transport buffer of 10 mM stock solution (HBSS without BSA) and applied to the apical side or the basolateral side of the cell monolayer. Incubation was carried out at 37° C., 5% CO2, and 95% relative humidity for 120 minutes, and the permeability of the test compound from the A to B direction or the B to A direction was determined in duplicate. The efflux ratio of each compound was determined. Test and reference compounds were quantitated by LC-MS/MS analysis based on the analyte/IS peak area ratio. […] [table]

ICR mice [4] = experiment: Toxicological experiment in mice, 14-day repeated oral gavage (toxicity study); type: in vivo
Method: as §1

[5] = Metabolic stability in (human) liver microsomes; type: in vitro ADME; conditions: pH 7.4, test concentration 1 μM
Method: 3×NADPH stock solution (6 mM, 5 mg/mL) was prepared by dissolving NADPH in the buffer solution; 4. 30 μL of 1.5 μM additive solution containing 0.75 mg/mL microsomal solution was distributed to the plates designated for different time points (0, 5, 15, 30, 45 minutes); 5. at 0 min, 150 μL of ACN containing IS was added to the wells of the plate, followed by addition of 15 μL of NADPH stock solution (6 mM, step 3); 6. all other plates were pre-incubated at 37° C. for 5 minutes; 7. adding 15 μL of NADPH stock solution to the plate to start the reaction and timing; 8. 150 μL of ACN containing IS was added to the wells of the corresponding plates to stop the reaction at 5 min, 15 min, 30 min and 45 min, respectively; 9. after quenching, the plates were shaken on a shaker for 10 minutes (600 rpm/min) and then centrifuged at 6000 rpm for 15 minutes; 10. 80 μL of supernatant was transferred from each well to a 96-well sample plate containing 140 μL water for LC/MS analysis.
Detection method: LC-MS/MS-11 (8050), internal standard: tolbutamide; MS conditions: positive ion ESI for testosterone and test compound, and negative ion ESI for tolbutamide; Mobile phases: mobile phase A is 0.1% FA in water, and mobile phase B is 0.1% FA in ACN; Column and specification: ACQUITY UPLC HSS T3 1.8 um 2.1*50 mm.

[6] = Pharmacokinetic experiment in cynomolgus monkeys; type: in vivo, cynomolgus monkey; conditions: for Vd: read-out: Vss; for F: oral 20 mg/kg vs intravenous 2 mg/kg
Method: Experimental objective: To evaluate the pharmacokinetic profile of compound 1 and compare it with compound 20 (control compound).
Experimental method: 6 male Non-juvenile cynomolgus monkeys, 4˜5 kg, were purchased from Huazheng Experimental Animal Center. Group IV was administered intravenously at a dose of 2 mg/kg (5 mL/kg) (n=3), and the group PO was administered orally at a dose of 20 mg/kg (10 mL/kg) (n=3). Approximately 500 μL blood was collected from cephalic vein and saphenous vein at each experimental time point, and centrifuged at 2,000 g for 5 min (4° C.) within 15 min after sampling for subsequent analysis.

[7] = intravenous 2 mg/kg, male, individual animals #1, #2, #3, 2 mg/kg
[8] = male, cynomolgus monkey, plasma, iv, 2 mg/kg, intravenous 2 mg/kg, Mean (n=3)
[9] = male, cynomolgus monkey, plasma, iv, 2 mg/kg, intravenous 2 mg/kg, individual animals #1, #2, #3
[10] = male, cynomolgus monkey, plasma, po, 20 mg/kg, oral 20 mg/kg, Mean (n=3)
[11] = oral 20 mg/kg, male, individual animals #4, #5, #6, 20 mg/kg

With `O=C(O)c1ccc2nc(CN3CCC(c4cccc(OCc5ccc(C6COC6)cc5F)n4)CC3)n(C[C@@H]3CCO3)c2c1` [Compound 1, (S)-2-((4-(6-((2-fluoro-4-(oxetan-3-yl)benzyl)oxy)pyridin-2-yl)piperidin-1-yl)methyl)-1-(oxetan-2-ylmethyl)-1H-benzo[d]imidazole-6-carboxylic acid] the EC50 (Human GLP-1R) was 0.03 nM, the IC50 (hERG potassium channels) was 15.9 µM and the “hERG inhibitory activity (conclusion)” value (hERG potassium channels) was “Did not Exhibit hERG Inhibitory Activity”. For the same compound, the “hERG (IR)” value (hERG potassium channels; 1 μM) was 3.75% (1 μM), the “hERG (IR)” value (hERG potassium channels; 10 μM) was 40.7 (10 μM) % and the Cmax ([1]; plasma of female animals) was 117 µg/mL. It also gave a Cmax ([1]; plasma of male animals) of 81 µg/mL, an AUC(0-t) ([1]; female, plasma of female animals, read-out: AUC(0-t) (second value listed)) of 271 µg·h/mL and an AUC(0-t) ([1]; female, plasma of female animals, read-out: AUC(0-t), the systemic exposure (first value listed)) of 291 µg·h/mL. The AUC(0-t) ([1]; male, plasma of male animals, read-out: AUC(0-t) (second value listed)) was 200 µg·h/mL, the AUC(0-t) ([1]; male, plasma of male animals, read-out: AUC(0-t), the systemic exposure (first value listed)) was 218 µg·h/mL and the animals found dead (ICR mice [2]) was 1/14. The efflux ratio at 120 min, 10 uM ([3]; Papp(BA)/Papp(AB)) was 5.26, the Papp A→B at 120 min, 10 uM ([3]; apical to basolateral, 10 uM, 120 minutes) was 3.14 ×10⁻⁶ cm/s and the Papp B→A at 120 min, 10 uM ([3]; basolateral to apical, 10 uM, 120 minutes) was 16.5 ×10⁻⁶ cm/s. The “non-toxic response dose level” value (ICR mice [4]; ICR mice, gavage once a day for 14 consecutive days) was 200 mg/kg, the “toxicological effects on experimental animals (conclusion)” value (ICR mice [4]; at the studied dose (200 mg/kg)) was “no significant toxicological effects” and the “biochemical analysis of serum” value (ICR mice [4]; compared to vehicle control) was “no significant toxicological changes”. For the same compound, the clinical observation (ICR mice [4]; toxicity study, 100 mg/kg, presumed not related to the test compound) was “occasionally showed abnormal gait, decreased activity, piloerection and traumatic abnormalities”, the half-life at 1 μM [5] was 2.17 h and the “pharmacokinetic profile, orally administered (conclusion)” value ([6]; compared with control compound 20) was “significantly better than that of the control compound 20”. For the same compound, the AUCINF [6, 7] was 14.9 hr * μM and 13.0 hr * μM and 8749 hr * ng/ml and 7622 hr * ng/ml, the AUClast [6, 7] was 14.9 hr * μM and 13.0 hr * μM and 15215 hr * ng/ml and 8739 hr * ng/ml and 7607 hr * ng/ml and the CL [6, 7] was 2.19 mL/min/kg and 3.81 mL/min/kg and 4.37 mL/min/kg and 2.18 mL/min/kg and 3.82 mL/min/kg. The MRTINF [6, 7] was 0.247 h and 0.242 h, the T1/2 [6, 7] was 1.46 h and 1.50 h and the Vss [6, 7] was 0.0564 L/kg and 0.0635 L/kg. The AUC(0-inf) [6, 8] was 18 µM·h and 10500 ng·h/mL, the AUC(0-t) [6, 8] was 17.9 µM·h and 10500 ng·h/mL and the MRT inf [6, 8] was 0.292 h. For the same compound, the clearance [6, 8] was 3.46 mL/min/kg, the half-life [6, 8] was 1.39 h and the AUC(0-inf) [6, 9] was 26 µM·h and 15200 ng·h/mL. It also gave an AUC(0-t) [6, 9] of 26 µM·h, an MRT inf [6, 9] of 0.387 h and a half-life [6, 9] of 1.23 h. The Vd ([6]; male, cynomolgus monkey, plasma, iv, 2 mg/kg, intravenous 2 mg/kg, male, Mean (n=3)) was 0.0569 L/kg, the Vd ([6]; male, cynomolgus monkey, plasma, iv, 2 mg/kg, intravenous 2 mg/kg, male, individual animals #1, #2, #3) was 0.0508 L/kg and the AUC(0-inf) [6, 10] was 61.8 µM·h and 36200 ng·h/mL. The AUC(0-t) [6, 10] was 34500 ng·h/mL and 58.9 µM·h, the MRT inf [6, 10] was 6.71 h and the half-life [6, 10] was 5.32 h. For the same compound, the Cmax ([6]; male, cynomolgus monkey, plasma, po, 20 mg/kg, oral 20 mg/kg, male, Mean (n=3), read-out: Cmax) was 12700 ng/mL and 21.6 µM, the Tmax ([6]; male, cynomolgus monkey, plasma, po, 20 mg/kg, oral 20 mg/kg, male, Mean (n=3), read-out: Tmax) was 1.67 h and the Tmax ([6]; male, cynomolgus monkey, plasma, po, 20 mg/kg, oral 20 mg/kg, male, individual animals #4, #5, #6, read-out: Tmax) was 2 h. For the same compound, the “oral bioavailability (conclusion)” value ([6]; oral 20 mg/kg) was “high oral bioavailability”, the F ([6]; male, Mean (n=3)) was 32.8% and the F ([6]; male, individual animals #4, #5, #6) was 40.5% and 16.2% and 41.8%. For the same compound, the AUCINF [6, 11] was 72.8 hr * μM and 37.3 hr * μM and 75.2 hr * μM and 42676 hr * ng/ml and 21853 hr * ng/ml and 44083 hr * ng/ml, the AUClast [6, 11] was 72.6 hr * μM and 29.0 hr * μM and 75.1 hr * μM and 42563 hr * ng/ml and 17014 hr * ng/ml and 44038 hr * ng/ml and the Cmax [6, 11] was 12500 ng/mL and 2270 ng/mL and 23200 ng/mL. The MRTINF [6, 11] was 3.15 h and 14.5 h and 2.47 h, the T1/2 [6, 11] was 3.03 h and 10.4 h and 2.52 h and the Tmax [6, 11] was 1.00 h.
